# ChEMBL document CHEMBL1132054, “Synthesis and properties of 2-(naphthosultamyl)methyl-carbapenems with potent anti-MRSA activity: discovery of L-786,392” (Bioorg Med Chem Lett, 1999)
# How the values were obtained:
# [1] = molecular target: T1, Dipeptidase 1 (Sus scrofa) (UniProt P22412); assay: Susceptibility to hog kidney dehydropeptidase-I.; format: functional, tissue-based; design: reference not given here
# T1 sequence (whole entry): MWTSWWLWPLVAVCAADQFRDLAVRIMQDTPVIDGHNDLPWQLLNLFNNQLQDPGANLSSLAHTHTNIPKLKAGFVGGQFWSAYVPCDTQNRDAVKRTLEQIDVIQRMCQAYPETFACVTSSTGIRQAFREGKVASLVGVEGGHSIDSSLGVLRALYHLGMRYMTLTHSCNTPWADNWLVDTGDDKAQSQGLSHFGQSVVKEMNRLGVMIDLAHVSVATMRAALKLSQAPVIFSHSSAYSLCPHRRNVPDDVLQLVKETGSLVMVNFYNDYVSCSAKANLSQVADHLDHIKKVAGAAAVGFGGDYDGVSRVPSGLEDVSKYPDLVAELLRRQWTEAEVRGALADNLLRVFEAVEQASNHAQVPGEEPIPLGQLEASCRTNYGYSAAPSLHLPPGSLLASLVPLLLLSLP
# Enterococcus faecium [2] = assay: In vitro antibacterial activity against MDREFm.; format: functional
# Enterococcus faecalis = assay: In vitro antibacterial activity against VREFs.; format: functional
# Staphylococcus sp. = assay: In vitro antibacterial activity against MRCNS.; format: functional
# Streptococcus pneumoniae = assay: In vitro antibacterial activity against PRSP.; format: functional
# Staphylococcus aureus [3] = assay: Effect of 43 mg/mL of Human Serum Albumin, Fraction V (HSA Fr. V) on antimicrobial activity was assessed against MSSA strain MB 2985; format: functional
# Staphylococcus aureus [4] = assay: In vitro antibacterial activity against MRSA.; format: functional
# Staphylococcus aureus [5] = assay: Antibacterial activity against Methicillin sensitive Staphylococcus aureus; format: functional
# [6] = molecular target: T1, Dipeptidase 1 (Sus scrofa); assay: Compound was tested for susceptibility to hog kidney dehydropeptidase-I and expressed as a reaction rate normalized to the rate observed with imipenem (IPM); format: functional, tissue-based
# Mus musculus = species on record: Mus musculus; assay: Dose showing no visible effects (ataxia, somnolence) in two mice; format: functional
# [7] = Lethal dose defined as as the lowest dose resulting in the death of a single mouse; format: toxicity; settings: in vivo
# Staphylococcus aureus [8] = assay: Antibacterial activity against Methicillin sensitive Staphylococcus aureus-/+ HSA Fr. V; format: functional
# Enterococcus faecium [9] = assay: Antibacterial activity against VREFs; format: functional
# Staphylococcus aureus [10] = assay: Effect of 43 mg/mL of Human Serum Albumin, Fraction V (HSA Fr. V) on antimicrobial activity was assessed against Methicillin sensitive Staphylococcus aureus strain MB 2985; format: functional
# Enterococcus faecium [11] = assay: Antibacterial activity against MDREFm; format: functional
Compound,Activity [1],MIC (Enterococcus faecium [2]),MIC (Enterococcus faecalis),MIC (Staphylococcus sp.),MIC (Streptococcus pneumoniae),MIC (Staphylococcus aureus [3]),MIC (Staphylococcus aureus [4]),MIC (Staphylococcus aureus [5]),Activity [6],NOEL (Mus musculus),Lethal dose [7],MIC (Staphylococcus aureus [8]),MIC (Enterococcus faecium [9]),MIC (Staphylococcus aureus [10]),MIC (Enterococcus faecium [11])
C[C@@H](O)[C@H]1C(=O)N2C(C(=O)O)=C(CN3c4cccc5ccc(C[N+]67CC[N+](CC(N)=O)(CC6)CC7)c(c45)S3(=O)=O)[C@H](C)[C@H]12.[Cl-].[Cl-],0.01,20.2 µg/mL,16 µg/mL,4 µg/mL,0.71 µg/mL,0.031 µg/mL,2.5 µg/mL,0.016 µg/mL,,,,,,,
C[C@@H](O)[C@H]1C(=O)N2C(C(=O)O)=C(CN3c4cccc5c(CC[N+]67CC[N+](Cc8ccccc8)(CC6)CC7)ccc(c45)S3(=O)=O)[C@H](C)[C@H]12.[Cl-].[Cl-],,6.4 µg/mL,8 µg/mL,1.3 µg/mL,0.35 µg/mL,,0.9 µg/mL,,1.85,63 mg/kg,250 mg/kg,,,,
C[C@@H](O)[C@H]1C(=O)N2C(C(=O)O)=C(CN3c4cccc5ccc(CC[N+]67CC[N+](CC(N)=O)(CC6)CC7)c(c45)S3(=O)=O)[C@H](C)[C@H]12.[Cl-].[Cl-],0,10.1 µg/mL,8 µg/mL,1.2 µg/mL,0.35 µg/mL,0.016 µg/mL,0.9 µg/mL,0.016 µg/mL,,16 mg/kg,63 mg/kg,,,,
C[C@@H](O)[C@H]1C(=O)N2C(C(=O)O)=C(CN3c4ccc(C[N+]56CC[N+](CC(N)=O)(CC5)CC6)c5cccc(c45)S3(=O)=O)[C@H](C)[C@H]12.[Cl-].[Cl-],0.81,32 µg/mL,32 µg/mL,12.1 µg/mL,1 µg/mL,0.125 µg/mL,4.2 µg/mL,,,,,0.031 µg/mL,,,
C[C@@H](O)[C@H]1C(=O)N2C(C(=O)O)=C(CN3c4cccc5c(C[N+]67CC[N+](CC(N)=O)(CC6)CC7)ccc(c45)S3(=O)=O)[C@H](C)[C@H]12.[Cl-].[Cl-],0.74,8 µg/mL,16 µg/mL,1.5 µg/mL,0.5 µg/mL,0.031 µg/mL,1 µg/mL,,,250 mg/kg,500 mg/kg,0.031 µg/mL,,,
C[C@@H](O)[C@H]1C(=O)N2C(C(=O)O)=C(CN3c4cccc5cc(C[N+]67CC[N+](CC(N)=O)(CC6)CC7)cc(c45)S3(=O)=O)[C@H](C)[C@H]12.[Cl-].[Cl-],0.21,8 µg/mL,16 µg/mL,3 µg/mL,0.5 µg/mL,0.031 µg/mL,2 µg/mL,,,,,0.016 µg/mL,,,
C[C@@H](O)[C@H]1C(=O)N2C(C(=O)O)=C(CN3c4cccc5cc(CC[N+]67CC[N+](CC(=O)Nc8ccccc8)(CC6)CC7)cc(c45)S3(=O)=O)[C@H](C)[C@H]12.[Cl-].[Cl-],0.64,3.2 µg/mL,8 µg/mL,0.3 µg/mL,0.17 µg/mL,,0.2 µg/mL,,,<61 mg/kg,245 mg/kg,,,,
C[C@@H](O)[C@H]1C(=O)N2C(C(=O)O)=C(CN3c4cccc5c(CC[N+]67CC[N+](CC(N)=O)(CC6)CC7)ccc(c45)S3(=O)=O)[C@H](C)[C@H]12.[Cl-].[Cl-],1.77,,,1 µg/mL,0.17 µg/mL,,0.7 µg/mL,,,250 mg/kg,> 500 mg/kg,0.016 µg/mL,8 µg/mL,0.031 µg/mL,4 µg/mL
C[C@@H](O)[C@H]1C(=O)N2C(C(=O)O)=C(CN3c4ccc(CC[N+]56CC[N+](CC(N)=O)(CC5)CC6)c5cccc(c45)S3(=O)=O)[C@H](C)[C@H]12.[Cl-].[Cl-],0.74,16 µg/mL,32 µg/mL,12.1 µg/mL,1 µg/mL,0.062 µg/mL,8 µg/mL,,,,,0.062 µg/mL,,,
C[C@@H](O)[C@H]1C(=O)N2C(C(=O)O)=C(CN3c4c(CC[N+]56CC[N+](CC(N)=O)(CC5)CC6)ccc5cccc(c45)S3(=O)=O)[C@H](C)[C@H]12.[Cl-].[Cl-],,> 64 µg/mL,> 64 µg/mL,> 64 µg/mL,> 64 µg/mL,64 µg/mL,> 64 µg/mL,,,,,32 µg/mL,,,
C[C@@H](O)[C@H]1C(=O)N2C(C(=O)O)=C(CN3c4cccc5cc(CC[N+]67CC[N+](CCCO)(CC6)CC7)cc(c45)S3(=O)=O)[C@H](C)[C@H]12.[Cl-].[Cl-],0.85,4 µg/mL,8 µg/mL,1.5 µg/mL,0.17 µg/mL,,1.1 µg/mL,,,,,,,,
C[C@@H](O)[C@H]1C(=O)N2C(C(=O)O)=C(CN3c4cccc5c(CC[N+]67CC[N+](CCCO)(CC6)CC7)ccc(c45)S3(=O)=O)[C@H](C)[C@H]12.[Cl-].[Cl-],1.9,6.4 µg/mL,16 µg/mL,0.9 µg/mL,0.5 µg/mL,,0.6 µg/mL,,,250 mg/kg,> 500 mg/kg,,,,
CCC[N+]12CC[N+](CCc3cc4c5c(cccc5c3)N(CC3=C(C(=O)O)N5C(=O)[C@H]([C@@H](C)O)[C@H]5[C@H]3C)S4(=O)=O)(CC1)CC2.[Cl-].[Cl-],,3.2 µg/mL,8 µg/mL,1.5 µg/mL,0.24 µg/mL,,1 µg/mL,,,,,,,,
C[C@@H](O)[C@H]1C(=O)N2C(C(=O)O)=C(CN3c4cccc5c(CCC[N+]67CC[N+](CC(N)=O)(CC6)CC7)ccc(c45)S3(=O)=O)[C@H](C)[C@H]12.[Cl-].[Cl-],2.64,4 µg/mL,8 µg/mL,3.5 µg/mL,0.25 µg/mL,0.031 µg/mL,2 µg/mL,,,125 mg/kg,500 mg/kg,0.016 µg/mL,,,
C[C@@H](O)[C@H]1C(=O)N2C(C(=O)O)=C(CN3c4cccc5cc(CCC[N+]67CC[N+](CC(N)=O)(CC6)CC7)cc(c45)S3(=O)=O)[C@H](C)[C@H]12.[Cl-].[Cl-],1.25,6.4 µg/mL,16 µg/mL,4 µg/mL,0.5 µg/mL,0.031 µg/mL,2.2 µg/mL,,,,,0.016 µg/mL,,,
C[C@@H](O)[C@H]1C(=O)N2C(C(=O)O)=C(CN3c4cccc5c(CC[N+]67CC[N+](CC(=O)Nc8ccccc8)(CC6)CC7)ccc(c45)S3(=O)=O)[C@H](C)[C@H]12.[Cl-].[Cl-],1.4,4 µg/mL,4 µg/mL,1.5 µg/mL,0.12 µg/mL,,0.8 µg/mL,,,31 mg/kg,63 mg/kg,,,,
C[C@@H](O)[C@H]1C(=O)N2C(C(=O)[O-])=C(CN3c4cccc5cccc(c45)S3(=O)=O)[C@H](C)[C@H]12.[Na+],0.99,25.4 µg/mL,8 µg/mL,3.5 µg/mL,0.25 µg/mL,0.25 µg/mL,0.7 µg/mL,0.016 µg/mL,,,,,,,
C[C@@H](O)[C@H]1C(=O)N2C(C(=O)O)=C(CN3c4cccc5cc(CC[N+]67CC[N+](CC(N)=O)(CC6)CC7)cc(c45)S3(=O)=O)[C@H](C)[C@H]12.[Cl-].[Cl-],0.75,3.2 µg/mL,8 µg/mL,0.6 µg/mL,0.17 µg/mL,0.016 µg/mL,0.5 µg/mL,,,125 mg/kg,500 mg/kg,0.016 µg/mL,,,
CN[C@H](CC(C)C)C(=O)N[C@H]1C(=O)N[C@@H](CC(N)=O)C(=O)N[C@H]2C(=O)N[C@H]3C(=O)N[C@H](C(=O)N[C@H](C(=O)O)c4cc(O)cc(O)c4-c4cc3ccc4O)[C@H](O)c3ccc(c(Cl)c3)Oc3cc2cc(c3O[C@@H]2O[C@H](CO)[C@@H](O)[C@H](O)[C@H]2O[C@H]2C[C@](C)(N)[C@H](O)[C@H](C)O2)Oc2ccc(cc2Cl)[C@H]1O [VANCOMYCIN],,20.2 µg/mL,> 64 µg/mL,1.7 µg/mL,0.35 µg/mL,,0.9 µg/mL,,,,,,,,
CCC[N+]12CC[N+](CCc3ccc4c5c(cccc35)N(CC3=C(C(=O)O)N5C(=O)[C@H]([C@@H](C)O)[C@H]5[C@H]3C)S4(=O)=O)(CC1)CC2.[Cl-].[Cl-],1.93,6.4 µg/mL,16 µg/mL,4 µg/mL,0.25 µg/mL,,2.2 µg/mL,,,,,,,,
C[C@@H](O)[C@H]1C(=O)N2C(C(=O)O)=C(SCCNC=N)C[C@H]12 [IMIPENEM ANHYDROUS],1,> 64 µg/mL,8 µg/mL,> 64 µg/mL,0.25 µg/mL,0.016 µg/mL,> 40 µg/mL,,,,,0.016 µg/mL,,,
